According to patent US20240308973A1, “PHOSPHODIESTERASE 3 (PDE3) INHIBITORS” (Zoetis Services LLC, priority 2023, published 2024):
pIC50: −log10 of the molar value.

What was measured:
[1] = biological target: dog PDE3A recombinant enzyme (Canis lupus familiaris, UniProt A0A8I3NYE0); assay: cPDE3A assay (fluorescent polarization); type: biochemical; settings: canine PDE3A, read-out: cPDE3 Inhibition (IC50)
Procedure: cPDE3A Assay (Fluorescent Polarization)
The canine PDE3A assay kit was purchased from BPS Bioscience (San Diego, CA) which included dog PDE3A recombinant enzyme, FAM-cyclic-3′,5′-AMP (20 μM), PDE3 assay buffer, binding agent, binding agent diluent and microtiter 96-well plates. Compounds were initially dissolved in DMSO. The stock concentration was subsequently diluted in cPDE assay buffer (10× stock) and serially diluted to give a concentration response curve starting at 10 μM (≥7 total concentrations). Following the serial dilution, compound solution (0.1% final DMSO) was transferred to an assay plate (96-well) where the remaining canine PDE3A assay reagents were dispensed according to the BPS Bioscience® protocol (catalog #79735) procedure using a final concentration of 5 pg/μL of enzyme. Each compound was evaluated for the inhibition of the canine PDE3A enzyme activity using the measurement of fluorescent polarization changes. The 50% inhibition concentration (IC50) nM was calculated and reported.

[2] = Dog plasma half-life after oral dose; type: in vivo; settings: Beagle dogs, oral dose 0.1 mg/kg, plasma over 72 hours, read-out: t½ (hrs), Dog Plasma Compound Half-life (converted)
Procedure: Lastly, plasma half-life was assessed for a number of compounds in dogs. Beagle dogs were given an oral dose (0.1 mg/kg) of the respective compound accounting for a dose amount of about 1 mg/dog. Pimopendan was administered at a 0.3 mg/kg dose.

Chain of dog PDE3A recombinant enzyme (A0A8I3NYE0 1-1135): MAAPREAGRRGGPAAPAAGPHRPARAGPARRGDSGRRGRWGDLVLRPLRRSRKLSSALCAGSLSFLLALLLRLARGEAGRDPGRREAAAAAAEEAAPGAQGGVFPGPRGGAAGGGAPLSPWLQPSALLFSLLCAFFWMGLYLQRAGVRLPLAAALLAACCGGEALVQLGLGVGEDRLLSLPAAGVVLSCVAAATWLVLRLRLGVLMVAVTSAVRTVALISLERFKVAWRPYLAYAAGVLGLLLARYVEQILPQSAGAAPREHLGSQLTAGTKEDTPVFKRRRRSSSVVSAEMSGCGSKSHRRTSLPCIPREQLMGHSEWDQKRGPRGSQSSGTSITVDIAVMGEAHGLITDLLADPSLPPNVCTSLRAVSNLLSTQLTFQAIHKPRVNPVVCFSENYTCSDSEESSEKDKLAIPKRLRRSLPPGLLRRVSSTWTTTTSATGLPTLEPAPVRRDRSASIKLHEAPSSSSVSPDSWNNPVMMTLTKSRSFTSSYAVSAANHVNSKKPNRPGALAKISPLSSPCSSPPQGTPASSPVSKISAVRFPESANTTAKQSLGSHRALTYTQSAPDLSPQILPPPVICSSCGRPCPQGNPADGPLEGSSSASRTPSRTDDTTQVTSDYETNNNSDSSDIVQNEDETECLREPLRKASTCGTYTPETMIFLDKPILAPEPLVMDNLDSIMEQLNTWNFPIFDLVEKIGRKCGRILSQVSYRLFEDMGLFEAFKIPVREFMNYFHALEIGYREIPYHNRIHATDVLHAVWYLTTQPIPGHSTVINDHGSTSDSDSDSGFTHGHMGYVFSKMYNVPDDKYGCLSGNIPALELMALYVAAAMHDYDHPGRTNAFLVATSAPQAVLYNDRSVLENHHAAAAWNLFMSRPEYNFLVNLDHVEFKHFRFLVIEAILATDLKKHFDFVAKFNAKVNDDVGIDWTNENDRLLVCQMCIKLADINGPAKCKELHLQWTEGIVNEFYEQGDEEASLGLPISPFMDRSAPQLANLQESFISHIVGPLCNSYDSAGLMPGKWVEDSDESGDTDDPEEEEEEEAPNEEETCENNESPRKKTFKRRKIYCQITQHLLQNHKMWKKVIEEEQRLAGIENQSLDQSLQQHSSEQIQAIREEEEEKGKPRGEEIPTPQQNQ

pIC50 [1]	half-life [2]	SMILES
8.27	50 h	CC1CC(=O)NN=C1c1cc(Cl)c2c(c1)C(C)(C)C(=O)N2 (racemic) [Example #24, 7-chloro-3,3-dimethyl-5-(4-methyl-6-oxo-1,4,5,6-tetrahydropyridazin-3-yl)indolin-2-one]
7.04	10.4 h	CC1CC(=O)NN=C1c1cc2c(c(-c3cccc(F)c3)c1)NC(=O)CC2 (stereo not shown) [Example #12, 8-(3-fluorophenyl)-6-(4-methyl-6-oxo-1,4,5,6-tetrahydropyridazin-3-yl)-3,4-dihydroquinolin-2 (1H)-one]
–	16 h	COc1ccc(C2(c3nc4ccc(C5=NNC(=O)CC5C)cc4[nH]3)CC2)cc1 (stereo not shown) [Example #19, 6-(2-(1-(4-methoxyphenyl)cyclopropyl)-1H-benzo[d]imidazol-6-yl)-5-methyl-4,5-dihydropyridazin-3 (2H)-one]
8.04	94 h	CC1CC(=O)NN=C1c1cc(Br)c2c(c1)C(C)(C)C(=O)N2 (stereo not shown) [Example #23, 7-bromo-3,3-dimethyl-5-(4-methyl-6-oxo-1,4,5,6-tetrahydropyridazin-3-yl)indolin-2-one]
7.80	50 h	CC1(C)C(=O)Nc2c(Cl)cc(-c3ccc(=O)[nH]n3)cc21 [Example #25, 7-chloro-3,3-dimethyl-5-(6-oxo-1,6-dihydropyridazin-3-yl)indolin-2-one]
8.42	3.2 h	Cc1cc(C2=NNC(=O)SC2C)cc2sc(=O)[nH]c12 (stereo not shown) [Example #55, 4-methyl-6-(6-methyl-2-oxo-3,6-dihydro-2H-1,3,4-thiadiazin-5-yl)benzo[d]thiazol-2 (3H)-one]
8.44	15 h	CC1SC(=O)NN=C1c1cc(Cl)c2[nH]c(=O)sc2c1 (stereo not shown) [Example #56, 4-chloro-6-(6-methyl-2-oxo-3,6-dihydro-2H-1,3,4-thiadiazin-5-yl)benzo[d]thiazol-2 (3H)-one]
8.08	7 h	CC1SC(=O)NN=C1c1cc(Cl)c2c(c1)C1(CC1)C(=O)N2 (stereo not shown) [Example #58, 5-(7′-chloro-2′-oxospiro[cyclopropane-1,3′-indolin]-5′-yl)-6-methyl-3,6-dihydro-2H-1,3,4-thiadiazin-2-one]
7.65	5.2 h	CC1(C)C(=O)Nc2c(F)cc(C3=NNC(=O)SC3)cc21 [Example #59, 5-(7-fluoro-3,3-dimethyl-2-oxoindolin-5-yl)-3,6-dihydro-2H-1,3,4-thiadiazin-2-one]
–	8.5 h	CC1(C)C(=O)Nc2c(Cl)cc(C3=NNC(=O)SC3)cc21 [Example #61, 5-(7-chloro-3,3-dimethyl-2-oxoindolin-5-yl)-3,6-dihydro-2H-1,3,4-thiadiazin-2-one]
–	5 h	CC1SC(=O)NN=C1c1cc(Cl)c2c(c1)CC(=O)N2 (stereo not shown) [Example #62, 5-(7-chloro-2-oxoindolin-5-yl)-6-methyl-3,6-dihydro-2H-1,3,4-thiadiazin-2-one]
7.61	10.2 h	CC1(C)C(=O)Nc2c(Br)cc(C3=NNC(=O)SC3)cc21 [Example #66, 5-(7-bromo-3,3-dimethyl-2-oxoindolin-5-yl)-3,6-dihydro-2H-1,3,4-thiadiazin-2-one]
6.95	–	O=C1Cc2cc(-c3cc(Cl)c4[nH]c(=O)oc4c3)cnc2N1 [Example #84, 4-chloro-6-(2-oxo-2,3-dihydro-1H-pyrrolo[2,3-b]pyridin-5-yl)benzo[d]oxazol-2 (3H)-one]
8.47	–	CC1(C)C(=O)Nc2c(Cl)cc(-c3cnc4c(c3)CCC(=O)N4)cc21 [Example #87, 6-(7-chloro-3,3-dimethyl-2-oxoindolin-5-yl)-3,4-dihydro-1,8-naphthyridin-2 (1H)-one]
8.14	–	CC1CC(=O)NN=C1c1ccc2nc(Nc3ccc4ncsc4c3)n(C)c2c1 (stereo not shown) [compound 10, 6-(2-(benzo[d]thiazol-6-ylamino)-1-methyl-1H-benzo[d]imidazol-6-yl)-5-methyl-4,5-dihydropyridazin-3 (2H)-one]
7.29	–	CC1CC(=O)NN=C1c1cc(Br)c2c(c1)C(C)(C)CC(=O)N2 (stereo not shown) [compound 11, 8-bromo-4,4-dimethyl-6-(4-methyl-6-oxo-1,4,5,6-tetrahydropyridazin-3-yl)-3,4-dihydroquinolin-2 (1H)-one]
7.30	–	COc1ccc(-c2cc(C3=NNC(=O)CC3C)cc3c2NC(=O)CC3)cn1 (stereo not shown) [compound 14, 8-(6-methoxypyridin-3-yl)-6-(4-methyl-6-oxo-1,4,5,6-tetrahydropyridazin-3-yl)-3,4-dihydroquinolin-2 (1H)-one]
7.75	–	Cc1cc(C2=NNC(=O)CC2)cc2sc(=O)[nH]c12 [compound 15, 4-methyl-6-(6-oxo-1,4,5,6-tetrahydropyridazin-3-yl)benzo[d]thiazol-2 (3H)-one]
8.30	–	CC1CC(=O)NN=C1c1ccc2nc(Nc3ccc(S(C)(=O)=O)cc3)n(C3CC3)c2c1 (stereo not shown) [compound 16, 6-(1-cyclopropyl-2-((4-(methylsulfonyl)phenyl)amino)-1H-benzo[d]imidazol-6-yl)-5-methyl-4,5-dihydropyridazin-3 (2H)-one]

pIC50 [1]	half-life [2]	SMILES
7.49	–	CC1CC(=O)NN=C1c1cc2c(c(-c3nccs3)c1)NC(=O)CCC2 (stereo not shown) [compound 20, 7-(4-methyl-6-oxo-1,4,5,6-tetrahydropyridazin-3-yl)-9-(thiazol-2-yl)-1,3,4,5-tetrahydro-2H-benzo[b]azepin-2-one]
7.48	–	CC1CC(=O)NN=C1c1ccc2nc(Oc3ccc4ncsc4c3)[nH]c2c1 (stereo not shown) [compound 22, 6-(2-(benzo[d]thiazol-6-yloxy)-1H-benzo[d]imidazol-6-yl)-5-methyl-4,5-dihydropyridazin-3 (2H)-one]
8.49	–	CC1CC(=O)NN=C1c1cc(Cl)c2[nH]c(=O)sc2c1 (stereo not shown) [compound 29, 4-chloro-6-(4-methyl-6-oxo-1,4,5,6-tetrahydropyridazin-3-yl)benzo[d]thiazol-2 (3H)-one]
8.49	–	CC1CC(=O)NN=C1c1cc(Br)c2nc(O)ccc2c1 (stereo not shown) [compound 45, 6-(8-bromo-2-hydroxyquinolin-6-yl)-5-methyl-4,5-dihydropyridazin-3 (2H)-one]
7.74	–	CC1CC(=O)NN=C1c1cc(C2CC2)c2nc(O)ccc2c1 (stereo not shown) [compound 48, 6-(8-cyclopropyl-2-hydroxyquinolin-6-yl)-5-methyl-4,5-dihydropyridazin-3 (2H)-one]
7.31	–	COC1CN(c2nc3ccc(C4=NNC(=O)CC4C)cc3s2)C1 (stereo not shown) [compound 49, 6-(2-(3-methoxyazetidin-1-yl)benzo[d]thiazol-6-yl)-5-methyl-4,5-dihydropyridazin-3 (2H)-one]
7.61	–	O=c1ccc(-c2cc(Cl)c3[nH]c(=O)sc3c2)n[nH]1 [compound 52, 4-chloro-6-(6-oxo-1,6-dihydropyridazin-3-yl)benzo[d]thiazol-2 (3H)-one]
7.49	–	CC1CC(=O)NN=C1c1cc(C#N)c2c(c1)CC(=O)N2 (stereo not shown) [compound 53, 5-(4-methyl-6-oxo-1,4,5,6-tetrahydropyridazin-3-yl)-2-oxoindoline-7-carbonitrile]
8.13	–	C[C@@H]1CC(=O)NN=C1c1cc(F)c2c(c1)CC(=O)N2 [compound 54, (R)-7-fluoro-5-(4-methyl-6-oxo-1,4,5,6-tetrahydropyridazin-3-yl)indolin-2-one]
8.33	–	Cc1cc(C2=NNC(=O)S[C@@H]2C)cc2ccc(O)nc12 [compound 60, (R)-5-(2-hydroxy-8-methylquinolin-6-yl)-6-methyl-3,6-dihydro-2H-1,3,4-thiadiazin-2-one]
8.49	–	CC1SC(=O)NN=C1c1cc(Cl)c2c(c1)CCCC(=O)N2 (stereo not shown) [compound 64, 5-(9-chloro-2-oxo-2,3,4,5-tetrahydro-1H-benzo[b]azepin-7-yl)-6-methyl-3,6-dihydro-2H-1,3,4-thiadiazin-2-one]
7.96	–	CC1SC(=O)NN=C1c1cc(Br)c2c(c1)CC(=O)N2 (stereo not shown) [compound 69, 5-(7-bromo-2-oxoindolin-5-yl)-6-methyl-3,6-dihydro-2H-1,3,4-thiadiazin-2-one]
7.09	–	CC1SC(=O)NN=C1c1cc2c(c(-c3ccccc3)c1)NC(=O)C2 (stereo not shown) [compound 70, 6-methyl-5-(2-oxo-7-phenylindolin-5-yl)-3,6-dihydro-2H-1,3,4-thiadiazin-2-one]
8.49	–	CC1SC(=O)NN=C1c1cc(Cl)c2nc(O)ccc2c1 (stereo not shown) [compound 81, 5-(8-chloro-2-hydroxyquinolin-6-yl)-6-methyl-3,6-dihydro-2H-1,3,4-thiadiazin-2-one]
7.58	–	CC1SC(=O)NN=C1c1cc(Cl)c2c(c1)CS(=O)(=O)N2 (stereo not shown) [compound 82, 5-(7-chloro-2,2-dioxido-1,3-dihydrobenzo[c]isothiazol-5-yl)-6-methyl-3,6-dihydro-2H-1,3,4-thiadiazin-2-one]
8.49	–	Cc1cc(C2=NNC(=O)SC2C)cc2c1NC(=O)CC2 (stereo not shown) [compound 83, 6-methyl-5-(8-methyl-2-oxo-1,2,3,4-tetrahydroquinolin-6-yl)-3,6-dihydro-2H-1,3,4-thiadiazin-2-one]
7.53	–	O=c1[nH]nc(-c2cc(Cl)c3[nH]c(=O)sc3c2)s1 [compound 88, 4-chloro-6-(5-oxo-4,5-dihydro-1,3,4-thiadiazol-2-yl)benzo[d]thiazol-2 (3H)-one]
7.60	–	CC1(C)C(=O)Nc2c(Cl)cc(-c3n[nH]c(=O)s3)cc21 [compound 89, 5-(7-chloro-3,3-dimethyl-2-oxoindolin-5-yl)-1,3,4-thiadiazol-2 (3H)-one]
